Experimental data: publication PMC7795425, “Synthesis and Biological Activity of Brassinosteroid Analogues with a Nitrogen-Containing Side Chain” (International Journal of Molecular Sciences, 2020)
Entries after “also recorded” stand apart in the source; their conditions may differ.

Tests used:
[1] = Calcein AM cytotoxicity assay, BJ; format: cell-based; details: human, BJ foreskin fibroblasts (normal cell line), IC50 > 50 µM means inactive, read-out: Cytotoxic activity IC50
Procedure: (§1) The effect of the prepared BRs derivatives on the viability (in Calcein AM assays) of BJ human fibroblasts (as an example of a “normal” cell line) and human cancer cell lines of various histopathological origins, including: T-lymphoblastic leukemia CEM, breast carcinoma MCF7 and cervical carcinoma cell line HeLa, was also studied. Cells of all these lines were exposed to six 3-fold dilutions of each drug for 72 h prior to determination of cell survival. The IC50 (concentration leading to 50% inhibition of viability) values obtained from the Calcein AM cytotoxicity assay were calculated. […] All tested BR nitrogen-containing derivatives had no detectable activity, even when tested in concentrations of up to 50 µM.
(§2) The screening cell lines: T-lymphoblastic leukemia CEM; breast carcinoma MCF7 (estrogen-sensitive); cervical carcinoma cell line HeLa; and human foreskin fibroblasts BJ, were obtained from the American Type Culture Collection (Manassas, VA, USA). Cells were cultured in DMEM (Dulbecco’s Modified Eagle Medium, Sigma, St. Louis, MO, USA). Media used were supplemented with 10% fetal bovine serum, 2mM L-glutamine and 1% penicillin–streptomycin. The cell lines were maintained under standard cell culture conditions at 37 °C and 5% CO2 in a humid environment.
(§3) Cells were subcultured twice or three times a week using the standard trypsinization procedure. Cytotoxicity in cancer cell lines after 72 h was determined as described earlier. Control cultures were treated with DMSO alone, and the final concentration of DMSO in the mixture never exceeded 0.6%. Six serial 3-fold dilutions of the test substances were added at time zero in 20 μL aliquots to the microtiter plate wells and the highest final concentration in the wells was 50 μM.
(§4) Table S3: Cytotoxic activities, IC50 (µM/L)a, of compounds in three tumor and one normal fibroblast
(§5) Compound CEM MCF7 HeLa BJ
(§6) a The lowest concentration that kills 50% of cells.
(§7) b Increase of cell proliferation.

[2] = system: Arabidopsis thaliana L. (Columbia ecotype, Col-0) seedlings; experiment: Arabidopsis root sensitivity bioassay; format: in vivo; details: for root length, mean: 7-day-old seedlings; for inhibitory effect on Arabidopsis root growth: tested 0.1 to 10 nM, selected derivatives also 100 nM
Procedure: Several bioassays such as the first bean internode, root growth and rice lamina inclination have been developed to evaluate the growth-promoting activity of BR derivatives. In this work, the activity of new BR analogues was evaluated using the Arabidopsis root sensitivity test because of its simplicity and high sensitivity for BRs.. The characteristic effect of exogenously applied BRs on light-grown Arabidopsis is dose-dependent—BRs in higher concentrations cause inhibition of root growth; vice versa, low concentrations are stimulating. The results obtained for 24-epiBL, which was used as a positive control, and the BR derivatives are shown in Figure 2, Figure 3 and Figure S21. […] A similar trend was shown for dimethylammonium hydrochloride 22a and morpholinium hydrochloride 22e with a long side chain. For numerical values of the average, SD and p-value, see Table S2.
The biological activity of the new BRs derivatives was tested by an Arabidopsis sensitivity bioassay which was performed according to [28]. Briefly, seedlings of Arabidopsis thaliana L. (Columbia ecotype, Col-0) were stratified for 2 days at 4 °C and germinated on vertical half-strength Murashige and Skoog (1% w/v sucrose) agar at 22 °C in a 16 h/8 h light–dark cycle. The plates contained concentrations of 24-epiBL (as positive control) and BR derivatives ranging from 0.1 to 10 nM, respectively 100 nM (for selected derivatives only). After 7 days, roots were straightened on solid media plates and scanned with an Epson high-resolution scanner. The entire root length was measured with ImageJ (http://rsbweb.nih.gov/ij/). For each treatment, more than 15 seedlings were analyzed in two biological repeats, and p-values were calculated with the two-tailed Student t-test using Excel software.
(§8) Figure 2 Effect of selected brassinosteroid derivatives on the inhibition of Arabidopsis root length. Seven-day-old Arabidopsis thaliana seedlings (Columbia ecotype, Col-0) were treated with DMSO as control/24epiBL/BR short side chain derivatives; (A)—amides, (B)—amines, (C)—ammonium hydrochlorides. For each treatment, more than 15 seedlings were analyzed in two biological repeats. Error bars represent SD. Asterisks represent significant changes (t-test); * represents p-value < 0.05, in comparison to control.
as §8, with “Figure 3” for “Figure 2”, “control/24epiBL/BR long” for “control/24epiBL/BR short”, “(A)—amides, (B)—ammonium” for “(A)—amides, (B)—amines, (C)—ammonium”
Table S2: Data for figure 2, 3, and S21. P value <0.05(t-test), comparison to control.
control (mean ± SD) 16.3 ± 1.21
*only selected compounds were tested
mean(mm) SD t-test mean (mm) SD t-test mean (mm) SD t-test mean (mm) SD t-test
(1 picture or pasted object on this page, not shown here)

[3] = Calcein AM cytotoxicity assay, HeLa; format: cell-based; details: human, HeLa cervical carcinoma cells, IC50 > 50 µM means inactive, read-out: Cytotoxic activity IC50
Procedure: as §1, §2, §3, §4, §5, §6, §7

[4] = Calcein AM cytotoxicity assay, CEM; format: cell-based; details: human, CEM T-lymphoblastic leukemia cells, IC50 > 50 µM means inactive, read-out: Cytotoxic activity IC50
Procedure: as §1, §2, §3, §4, §5, §6, §7

[5] = Calcein AM cytotoxicity assay, MCF7; format: cell-based; details: human, MCF7 breast carcinoma cells (estrogen-sensitive), MCF7, 72 h, IC50 > 50 µM means inactive, read-out: Cytotoxic activity IC50
Procedure: as §1, §2, §3, §4, §5, §6, §7

[6] = 100 nM (only selected compounds), control 14.61 ± 0.85

Row | Structure (SMILES) | IC50 at 72 h [1] [µM] | root length, mean ([2]; 0.1 nM, control 16.3 ± 1.21) [mm] | root length, mean ([2]; 1 nM, control 16.3 ± 1.21) [mm] | root length, mean ([2]; 10 nM, control 16.3 ± 1.21) [mm] | IC50 at 72 h [3] [µM] | IC50 at 72 h [4] [µM] | melting point | IC50 at 72 h [5] [µM] | elongation of roots (growth-promoting activity) compared to the control ([2]; low concentrations (0.1 and 1 nM)) | root length, mean [2, 6] [mm] | inhibitory effect on Arabidopsis root growth [2]
1 | C[C@H](C(=O)N1CCCC1)[C@H]1CC[C@H]2[C@@H]3CC(=O)[C@H]4C[C@H](O)[C@H](O)C[C@]4(C)[C@H]3CC[C@]12C [8c, 1-((20S)-2α,3α-dihydroxy-6-oxo-5α-pregnane-20-carbonyl)pyrrolidine] | > 50 | 17.61 | 18.58 | 15.97 | > 50 | > 50 | > 180 °C (dec.) | > 50 |  |  | 
2 | C[C@H](C(=O)N1CCCCC1)[C@H]1CC[C@H]2[C@@H]3CC(=O)[C@H]4C[C@H](O)[C@H](O)C[C@]4(C)[C@H]3CC[C@]12C [8d, 1-((20S)-2α,3α-dihydroxy-6-oxo-5α-pregnane-20-carbonyl)piperidine] | > 50 | 17.11 | 15.97 | 14.18 | > 50 | > 50 | > 230 °C (dec.) | > 50 |  |  | 
3 | C[C@H](C(=O)N1CCOCC1)[C@H]1CC[C@H]2[C@@H]3CC(=O)[C@H]4C[C@H](O)[C@H](O)C[C@]4(C)[C@H]3CC[C@]12C [8e, 4-((20S)-2α,3α-dihydroxy-6-oxo-5α-pregnane-20-carbonyl)morpholine] | > 50 | 17.77 | 17.44 | 15.16 | > 50 | > 50 | > 270 °C (dec.) | > 50 | slight elongation of roots; also recorded: interesting growth-promoting activity |  | 
4 | C[C@H](CN(C)C)[C@H]1CC[C@H]2[C@@H]3CC(=O)[C@H]4C[C@H](O)[C@H](O)C[C@]4(C)[C@H]3CC[C@]12C [15a, (20S)-20-(N,N-dimethylaminomethyl)-2α,3α-dihydroxy-5α-pregnane-6-one] | > 50 | 14.83 | 14.29 | 14.34 | > 50 | > 50 | 219 to 221 °C | > 50 |  |  | 
5 | CCN(CC)C[C@@H](C)[C@H]1CC[C@H]2[C@@H]3CC(=O)[C@H]4C[C@H](O)[C@H](O)C[C@]4(C)[C@H]3CC[C@]12C [15b, (20S)-20-(N,N-diethylaminomethyl)-2α,3α-dihydroxy-5α-pregnane-6-one] | > 50 | 14.93 | 16.13 | 14.67 | > 50 | > 50 | > 190 °C (dec.) | > 50 |  | 13.903 | 
6 | C[C@H](CN1CCCC1)[C@H]1CC[C@H]2[C@@H]3CC(=O)[C@H]4C[C@H](O)[C@H](O)C[C@]4(C)[C@H]3CC[C@]12C [15c, (20S)-20-(pyrrolidin-1-ylmethyl)-2α,3α-dihydroxy-5α-pregnane-6-one] | > 50 | 16.78 | 14.37 | 17.21 | > 50 | > 50 | > 240 °C (dec.) | > 50 |  |  | 
7 | C[C@H](CN1CCCCC1)[C@H]1CC[C@H]2[C@@H]3CC(=O)[C@H]4C[C@H](O)[C@H](O)C[C@]4(C)[C@H]3CC[C@]12C [15d, (20S)-20-(piperidin-1-ylmethyl)-2α,3α-dihydroxy-5α-pregnane-6-one] | > 50 | 14.18 | 14.11 | 15.15 | > 50 | > 50 | > 210 °C (dec.) | > 50 |  |  | 
8 | C[C@H](CN1CCOCC1)[C@H]1CC[C@H]2[C@@H]3CC(=O)[C@H]4C[C@H](O)[C@H](O)C[C@]4(C)[C@H]3CC[C@]12C [15e, (20S)-20-(morpholin-4-ylmethyl)-2α,3α-dihydroxy-5α-pregnane-6-one] | > 50 | 17.21 | 17.61 | 16.21 | > 50 | > 50 | > 210 °C (dec.) | > 50 |  | 13.731 | 
9 | C[C@H]([C@@H](O)[C@H](O)C(=O)N(C)C)[C@H]1CC[C@H]2[C@@H]3CC(=O)[C@H]4C[C@H](O)[C@H](O)C[C@]4(C)[C@H]3CC[C@]12C [20a, N,N-dimethyl-(20S,22R,23S)-2α,3α,22,23-tetrahydroxy-6-oxo-5α-cholan-24-amide] | > 50 | 16.13 | 14.67 | 14.18 | > 50 | > 50 | > 210 °C (dec.) | > 50 |  | 15.192 | weak inhibitory effect
10 | CCN(CC)C(=O)[C@@H](O)[C@H](O)[C@@H](C)[C@H]1CC[C@H]2[C@@H]3CC(=O)[C@H]4C[C@H](O)[C@H](O)C[C@]4(C)[C@H]3CC[C@]12C [20b, N,N-diethyl-(20S,22R,23S)-2α,3α,22,23-tetrahydroxy-6-oxo-5α-cholan-24-amide] | > 50 | 16.78 | 15.32 | 14.99 | > 50 | > 50 | > 160 °C (dec.) | > 50 |  |  | 
11 | C[C@H]([C@@H](O)[C@H](O)C(=O)N1CCCC1)[C@H]1CC[C@H]2[C@@H]3CC(=O)[C@H]4C[C@H](O)[C@H](O)C[C@]4(C)[C@H]3CC[C@]12C [20c, 1-((20S,22R,23S)-2α,3α,22,23-tetrahydroxy-6-oxo-5α-cholan-24-oyl)pyrrolidine] | > 50 | 15.97 | 15.81 | 15.15 | > 50 | > 50 | > 200 °C (dec.) | > 50 |  | 14.873 | weak inhibitory effect
